Data from PubChem BioAssay (NCI).
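48-hour exposure; five concentrations; linearly interpolated endpoints. Abbreviation: GI50, concentration required for 50% inhibition of growth. The concentration for full growth arrest is given as TGI.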

Tests used:
Experiment in all cases: NCI tumour cell line growth inhibition, 48 h
A498 renal = tested on: A498 renal
A549 NSCLC = tested on: A549 NSCLC
KM12 colon = tested on: KM12 colon
M14 melanoma = tested on: M14 melanoma
IGROV1 ovarian = tested on: IGROV1 ovarian
MDA-MB-435 = tested on: MDA-MB-435
NCI/ADR-RES ovarian = tested on: NCI/ADR-RES ovarian
RPMI-8226 leukemia = tested on: RPMI-8226 leukemia
ACHN renal = tested on: ACHN renal
OVCAR-4 ovarian = tested on: OVCAR-4 ovarian

Row | Compound | TGI (A498 renal) [µM] | TGI (A549 NSCLC) [µM] | TGI (KM12 colon) [µM] | TGI (M14 melanoma) [µM] | TGI (IGROV1 ovarian) [µM] | TGI (MDA-MB-435) [µM] | TGI (NCI/ADR-RES ovarian) [µM] | TGI (RPMI-8226 leukemia) [µM] | TGI (ACHN renal) [µM] | TGI (OVCAR-4 ovarian) [µM] | GI50 (A498 renal) [µM] | GI50 (A549 NSCLC) [µM] | GI50 (KM12 colon) [µM] | GI50 (M14 melanoma) [µM] | GI50 (IGROV1 ovarian) [µM] | GI50 (OVCAR-4 ovarian) [µM] | GI50 (RPMI-8226 leukemia) [µM] | GI50 (ACHN renal) [µM]
1 | Cc1ccc(NC(=O)CC(=O)N2N=C(c3ccccc3)C(N=Nc3ccc(S(=O)(=O)CCOS(=O)(=O)O)cc3)C2=O)cc1 (stereo not drawn) | > 100 | > 100 | > 100 | > 100 | > 100 | > 100 | > 100 | > 100 | > 100 |  |  |  |  |  |  |  |  | 
2 | O=c1c(S(=O)(=O)Oc2ccccc2)coc2cc(F)ccc12 |  | > 100 | > 100 | > 100 | > 100 | > 100 | > 100 |  | > 100 | > 100 |  |  |  |  |  |  |  | 
3 | Cc1oc2c(C)c3oc(=O)cc(C)c3cc2c1CN | > 100 | > 100 | > 100 | > 100 |  |  |  | > 100 | > 100 | > 100 |  |  |  |  |  |  |  | 
4 | C/C(=N\n1c(Cc2ccccc2)n[nH]c1=O)c1ccc([N+](=O)[O-])cc1 |  | > 100 | > 100 | > 100 | > 100 | > 100 | > 100 | > 100 |  | > 100 |  |  |  |  |  |  |  | 
5 | CC(C)(Oc1ccc(C(=O)c2ccc(Cl)cc2)cc1Cl)C(=O)N1CCN(c2ccccc2)CC1 | > 100 | > 100 | > 100 | > 100 | > 100 |  |  | > 100 |  |  |  |  |  |  |  |  |  | 
6 | NC(CNc1ccc(O)cc1)C(=O)O (stereo not drawn) | > 100 | > 100 | > 100 | > 100 |  |  |  | > 100 | > 100 | 31.7 |  |  |  |  |  |  |  | 
7 | O=[N+]([O-])c1ccc(Cl)cc1N/N=C/c1cccs1 |  | > 100 | > 100 | > 100 | > 100 | > 100 | > 100 | > 100 | > 100 | > 100 |  |  |  |  |  |  |  | 
8 | C=C(COC(=O)C(C)C)[C@H]1Oc2ccc(C(C)=O)cc2[C@@H]1OC(=O)C(C)C |  | > 100 | > 100 | > 100 | > 100 | > 100 |  | > 100 | > 100 | > 100 |  |  |  |  |  |  |  | 
9 | O=C1CC(Cl)c2c(Cl)sc(Cl)c21 (stereo not drawn) | 27.3 | 12.7 | 4.03 | 3.94 | 5.09 | 6.34 | > 28.5 |  | 3.45 | 10.3 |  |  |  |  |  |  |  | 
10 | Cc1ccc(CC(=O)Nc2ccc(NC(=O)CNC(=O)/C=C/c3ccc(-c4ccccc4)cc3)cc2C(=O)c2ccccc2)cc1 | 8.73 | 5.37 | 14.5 | 17.3 | 21.7 | 16.1 | 29.8 | 29.2 | 16.2 |  |  |  |  |  |  |  |  | 
11 | COc1ccc(/C=C/C(c2cc(OC)c(OC)c(OC)c2)n2cncn2)cc1O (stereo not drawn) | 9.09 | > 100 | > 100 | 5.12 | > 100 |  |  | 42.2 | > 100 | > 100 | 3.13 | 4.56 | 0.0405 | 0.0287 | 5.83 | 7.05 | 0.037 | 0.0578
12 | Cc1ccnc2sc3ccccc3c(=O)c12 | > 100 |  | > 100 | > 100 | > 100 | > 100 | > 100 | > 100 | > 100 | > 100 |  |  |  |  |  |  |  | 
13 | Cc1nn(C(=O)c2ccc(Cl)cc2)c2c1C(c1ccco1)SC(N)=N2 (stereo not drawn) |  | > 10 | > 10 | > 10 | > 10 | > 10 | > 10 | > 10 | > 10 | > 10 |  |  |  |  |  |  |  | 
14 | CC1CN=C(N(C)C(=O)Nc2ccc(Cl)c(Cl)c2)S1 (stereo not drawn) | > 100 | > 100 | > 100 | 38 | > 100 |  | 73.2 | > 100 | > 100 | > 100 |  |  |  |  |  |  |  | 
15 | Cc1cnc2[nH]c(-c3cccc(Cl)c3)cc(=O)c2c1 | > 100 | > 100 | > 100 | > 100 | > 100 |  | > 100 |  | > 100 | > 100 |  |  |  |  |  |  |  | 
16 | Clc1cccc(N=C/C=C/Nc2cccc(Cl)c2)c1 | 49.7 | 83.9 | 27.1 |  | 39.3 | 28.9 | 31.4 | > 100 |  | > 100 |  |  |  |  |  |  |  | 
17 | c1cn[nH]c1 | > 10 | > 10 | > 10 |  | > 10 | > 10 | > 10 | > 10 | > 10 | > 10 |  |  |  |  |  |  |  | 
18 | C=CCc1cccc2cc(C(=O)Nc3nc(C45CC6CC(CC(C6)C4)C5)cs3)c(=O)oc12 | 70.6 | > 100 | > 100 |  | 94.5 | > 100 | > 100 | > 100 | 33.9 | 51.5 |  |  |  |  |  |  |  | 
19 | C/C(=C/c1c(C)[nH]c(=O)[nH]c1=O)C(=O)O | > 1380 | > 1380 | > 1380 |  | > 1380 |  | > 1380 | > 1380 |  | > 1380 |  |  |  |  |  |  |  | 
20 | O=C(CCC(=O)OCC1OC(O)(CC2OC(CO)C(O)C(O)C2O)C(O)C1O)OCc1ccccc1 (stereo not drawn) | > 100 | > 100 | > 100 | > 100 | > 100 | > 100 | > 100 |  | > 100 | > 100 |  |  |  |  |  |  |  | 
21 | Cc1nn(-c2ccccc2)c2c1N=C(C(=O)O)CC(c1ccccc1)=N2 |  | > 10 | > 10 | > 10 | > 10 | > 10 | > 10 | > 10 | > 10 | > 10 |  |  |  |  |  |  |  | 
22 | CCCCNCC(O)c1cc(-c2ccc(C(F)(F)F)cc2)nc(-c2ccc(C(F)(F)F)cc2)c1 (stereo not drawn) | 2.86 | 3.36 | 3.6 |  |  |  |  |  |  | 3.93 | 1.38 | 1.64 | 1.81 |  |  | 2.11 |  | 
23 | CC(=O)C(C(=O)C(C)(C)C)C(=O)C(C)(C)C |  | > 100 | > 100 | > 100 |  | > 100 | > 100 | > 100 | > 100 | > 100 |  |  |  |  |  |  |  | 
